Experimental data reported in the supplement of paper PMC11061612.

What was measured:
Assay in all cases: combination Emax (second highest fraction inhibited in the dose matrix, 72 h); higher = more inhibition; extreme values may be limits of the assay
[1] = system: BFTC-909 (Kidney Carcinoma)
Method in brief: (§1)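 Bliss excess equals the observed combination effect minus the expected value EA + EB − EA·EB, where EA and EB are the effects of each agent alone. Combination Emax is the second-highest inhibition within the matrix. Inhibition was scaled from CellTiter-Glo 2.0 luminescence, with 0 set by vehicle wells and 1 by blank wells, after 72 hours of two-drug dosing of cells plated in 1536-well plates.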

BPH-1 (Non-Cancerous) = system: BPH-1 (Non-Cancerous)
Method in brief: as §1

[2] = system: CAL-33 (Oral Cavity Carcinoma)
Method in brief: as §1

[3] = system: Detroit562 (Head and Neck Carcinoma)
Method in brief: as §1

[4] = system: HH (T-Cell Non-Hodgkin's Lymphoma)
Method in brief: as §1

[5] = system: HeLa (Cervical Carcinoma)
Method in brief: as §1

[6] = system: KMRC-20 (Kidney Carcinoma)
Method in brief: as §1

KS-1 (Glioblastoma) = system: KS-1 (Glioblastoma)
Method in brief: as §1

[7] = system: KYAE-1 (Esophageal Adenocarcinoma)
Method in brief: as §1

[8] = system: LCLC-97TM1 (Non-Small Cell Lung Carcinoma)
Method in brief: as §1

[9] = system: LS-123 (Colorectal Carcinoma)
Method in brief: as §1

MPP-89 (Mesothelioma) = system: MPP-89 (Mesothelioma)
Method in brief: as §1

[10] = system: NCI-H1568 (Lung Adenocarcinoma)
Method in brief: as §1

NCI-H2052 (Mesothelioma) = system: NCI-H2052 (Mesothelioma)
Method in brief: as §1

[11] = system: OV-56 (Ovarian Carcinoma)
Method in brief: as §1

[12] = system: SNU-16 (Gastric Carcinoma)
Method in brief: as §1

[13] = system: SNU-449 (Hepatocellular Carcinoma)
Method in brief: as §1

[14] = system: SW1573 (Lung Adenocarcinoma)
Method in brief: as §1

[15] = system: TGBC1TKB (Biliary Tract Carcinoma)
Method in brief: as §1

[16] = system: WSU-NHL (B-Cell Non-Hodgkin's Lymphoma)
Method in brief: as §1

Row | Compound | combination Emax [1] | combination Emax (BPH-1 (Non-Cancerous)) | combination Emax [2] | combination Emax [3] | combination Emax [4] | combination Emax [5] | combination Emax [6] | combination Emax (KS-1 (Glioblastoma)) | combination Emax [7] | combination Emax [8] | combination Emax [9] | combination Emax (MPP-89 (Mesothelioma)) | combination Emax [10] | combination Emax (NCI-H2052 (Mesothelioma)) | combination Emax [11] | combination Emax [12] | combination Emax [13] | combination Emax [14] | combination Emax [15] | combination Emax [16]
1 | Cc1cc2ncnn2cc1Nc1ncc2c(n1)n(C1CCOCC1)c(=O)n2C [AZD7648] + CCN(CCO)CCCOc1ccc2c(Nc3cc(CC(=O)Nc4cccc(F)c4)[nH]n3)ncnc2c1 [AZD2811] (first compound max 10 µM, 7x7, partner max 1 µM) | 0.384 | 0.614 | 0.913 | 0.829 | 0.245 | 0.285 | 0.275 | 0.4 | 0.207 | 0.44 | 0.309 | 0.258 | 0.185 | 0.382 | 0.276 | 0.569 | 0.318 | 0.287 | 0.313 | 0.976
2 | CN(CCO)CC[C@H](CSc1ccccc1)Nc1ccc(S(=O)(=O)NC(=O)c2ccc(N3CCC([C@@H](O)c4ccccc4-c4ccc(Cl)cc4)CC3)cc2)cc1S(=O)(=O)C(F)(F)F [AZD4320] + CC(=O)O[C@H]1C(=O)[C@@]2(C)[C@H]([C@H](OC(=O)c3ccccc3)[C@]3(O)C[C@H](OC(=O)[C@H](O)[C@@H](NC(=O)c4ccccc4)c4ccccc4)C(C)=C1C3(C)C)[C@]1(OC(C)=O)CO[C@@H]1C[C@@H]2O [Paclitaxel] (first compound max 1 µM, 7x7, partner max 3 µM) |  |  |  |  | 0.837 |  |  | 0.937 | 0.587 |  |  | 0.983 |  |  |  | 1 | 0.414 |  | 0.894 | 1
3 | C[C@@H](c1ccc2nccn2c1)n1nnc2ncc(-c3cnn(C)c3)nc21 [Savolitinib] + Cc1c2c(nn1C)CSCc1cc(n(C)n1)CSc1cc(c3ccccc3c1)OCCCc1c(C(=O)O)n(C)c3c-2c(Cl)ccc13 [AZD5991] (first compound max 1 µM, 7x7, partner max 1 µM) | 0.179 | 0.199 | 0.181 | 0.26 | 0.879 | 0.362 | 0.195 | 0.132 | 0.137 | 0.147 | 0.211 | 0.237 | 0.147 | 0.185 | 0.151 | 0.947 | 0.154 | 0.133 | 0.159 | 0.743
4 | CN(CCO)CC[C@H](CSc1ccccc1)Nc1ccc(S(=O)(=O)NC(=O)c2ccc(N3CCC([C@@H](O)c4ccccc4-c4ccc(Cl)cc4)CC3)cc2)cc1S(=O)(=O)C(F)(F)F [AZD4320] + Cc1cc2ncnn2cc1Nc1ncc2c(n1)n(C1CCOCC1)c(=O)n2C [AZD7648] (first compound max 1 µM, 7x7, partner max 10 µM) | 0.246 | 0.373 | 0.363 | 0.22 | 0.265 | 0.0576 | 0.157 | 0.319 | 0.279 | 0.203 |  | 0.281 | 0.22 | 0.245 | 0.149 | 0.3 | 0.166 | 0.104 | 0.577 | 0.86
5 | Cc1cc2ncnn2cc1Nc1ncc2c(n1)n(C1CCOCC1)c(=O)n2C [AZD7648] + CN(C)CCCOc1ccc(-c2ccc3ncc4c(c3c2)n(C2CCOCC2)c(=O)n4C)cn1 [AZD0156] (first compound max 10 µM, 7x7, partner max 1 µM) | 0.338 | 0.378 | 0.375 | 0.419 | 0.285 | 0.204 | 0.201 | 0.245 | 0.121 | 0.159 | 0.34 | 0.302 | 0.24 | 0.428 | 0.224 | 0.239 | 0.282 | 0.164 | 0.398 | 0.498
6 | CC(=O)c1c(C)c2cnc(Nc3ccc(N4CCNCC4)cn3)nc2n(C2CCCC2)c1=O [Palbociclib] + CN(CC[C@H](CSC1=CC=CC=C1)NC2=C(C=C(C=C2)S(=O)(=O)NC(=O)C3=CC=C(C=C3)N4CCC(CC4)[C@H](C5=CC=CC=C5C6=CC=C(C=C6)Cl)O)S(=O)(=O)C(F)(F)F)CCO [AZD4320] (first compound max 10 µM, 7x7, partner max 1 µM) | 0.55 | 0.592 | 0.364 | 0.633 |  | 0.117 | 0.25 |  |  | 0.252 |  |  | 0.515 | 0.296 | 0.289 |  |  | 0.255 |  | 
7 | N#Cc1cnc(Nc2cc(NC[C@H]3CNCCO3)c(C(F)(F)F)cn2)cn1 [SRA737] + CCc1c2c(nc3ccc(O)cc13)-c1cc3c(c(=O)n1C2)COC(=O)[C@]3(O)CC [SN-38] (first compound max 10 µM, 7x7, partner max 0.3 µM) |  |  |  |  | 0.452 |  |  | 0.458 | 0.313 |  | 0.773 | 0.73 |  |  |  | 0.995 | 0.704 |  | 0.367 | 0.994
8 | N#Cc1cnc(Nc2cc(NC[C@H]3CNCCO3)c(C(F)(F)F)cn2)cn1 [SRA737] + C=CCn1c(=O)c2cnc(Nc3ccc(N4CCN(C)CC4)cc3)nc2n1-c1cccc(C(C)(C)O)n1 [AZD1775] (first compound max 10 µM, partner max 1 µM) |  |  |  |  | 0.475 |  |  | 0.499 | 0.114 |  | 0.722 | 0.661 |  |  |  | 0.995 | 0.562 |  | 0.271 | 0.989
9 | Cc1cc2ncnn2cc1Nc1ncc2c(n1)n(C1CCOCC1)c(=O)n2C [AZD7648] + COc1cc([C@@H]2c3cc4c(cc3[C@@H](O[C@@H]3O[C@@H]5CO[C@@H](C)O[C@H]5[C@H](O)[C@H]3O)[C@H]3COC(=O)[C@H]23)OCO4)cc(OC)c1O [Etoposide] (first compound max 10 µM, 7x7, partner max 10 µM) |  |  |  |  | 0.141 |  |  | 0.431 | 0.547 |  | 0.884 | 0.604 |  |  |  | 0.794 | 0.296 |  | 0.326 | 1
10 | N#Cc1cnc(Nc2cc(NC[C@H]3CNCCO3)c(C(F)(F)F)cn2)cn1 [SRA737] + Nc1ccn([C@@H]2O[C@H](CO)[C@@H](O)C2(F)F)c(=O)n1 [Gemcitabine] (first compound max 10 µM, 7x7, partner max 0.3 µM) |  |  |  |  | 0.634 |  |  | 0.5 | 0.19 |  | 0.759 | 0.656 |  |  |  | 1 | 0.515 |  | 0.457 | 0.993
11 | C[C@@H](c1ccc2nccn2c1)n1nnc2ncc(-c3cnn(C)c3)nc21 [Savolitinib] + CN(CC[C@H](CSC1=CC=CC=C1)NC2=C(C=C(C=C2)S(=O)(=O)NC(=O)C3=CC=C(C=C3)N4CCC(CC4)[C@H](C5=CC=CC=C5C6=CC=C(C=C6)Cl)O)S(=O)(=O)C(F)(F)F)CCO [AZD4320] (first compound max 1 µM, 7x7, partner max 1 µM) | 0.29 | 0.346 | 0.222 | 0.237 |  | 0.13 | 0.184 |  |  | 0.101 |  |  | 0.256 | 0.225 | 0.212 |  |  | 0.239 |  | 
12 | CN(CCO)CC[C@H](CSc1ccccc1)Nc1ccc(S(=O)(=O)NC(=O)c2ccc(N3CCC([C@@H](O)c4ccccc4-c4ccc(Cl)cc4)CC3)cc2)cc1S(=O)(=O)C(F)(F)F [AZD4320] + C[C@@H]1COCCN1C2=NC(=NC(=C2)C3(CC3)[S@](=N)(=O)C)C4=C5C=CNC5=NC=C4 [AZD6738] (first compound max 1 µM, 7x7, partner max 10 µM) | 0.997 | 0.441 | 0.964 | 0.905 | 0.404 | 0.717 | 0.721 | 0.68 | 0.51 | 0.87 |  | 0.794 | 0.522 | 0.439 | 0.836 | 0.994 | 0.19 | 0.555 | 0.666 | 0.968
13 | CN(CCO)CC[C@H](CSc1ccccc1)Nc1ccc(S(=O)(=O)NC(=O)c2ccc(N3CCC([C@@H](O)c4ccccc4-c4ccc(Cl)cc4)CC3)cc2)cc1S(=O)(=O)C(F)(F)F [AZD4320] + CCN(CCO)CCCOc1ccc2c(Nc3cc(CC(=O)Nc4cccc(F)c4)[nH]n3)ncnc2c1 [AZD2811] (first compound max 1 µM, 7x7, partner max 1 µM) | 0.514 | 0.893 | 0.853 | 0.825 | 0.348 | 0.192 | 0.256 | 0.464 | 0.496 | 0.366 |  | 0.526 | 0.248 | 0.128 | 0.117 | 0.747 | 0.154 | 0.62 | 0.424 | 0.785
14 | COc1nnc2ccc(N3CCC(c4ccc(OCCN5CCN(C)C(=O)[C@H]5C)cc4)CC3)nn12 [AZD5153] + CN(CC[C@H](CSC1=CC=CC=C1)NC2=C(C=C(C=C2)S(=O)(=O)NC(=O)C3=CC=C(C=C3)N4CCC(CC4)[C@H](C5=CC=CC=C5C6=CC=C(C=C6)Cl)O)S(=O)(=O)C(F)(F)F)CCO [AZD4320] (first compound max 1 µM, 7x7, partner max 1 µM) | 0.71 | 0.928 | 0.343 | 0.942 |  | 0.433 | 0.545 |  |  | 0.726 |  |  | 0.266 | 0.189 | 0.507 |  |  | 0.61 |  | 
